EP3868760A1, “2,3,5-SUBSTITUTED PYRROLO[2,3-B]PYRIDINES AS ERBB MODULATORS USEFUL FOR TREATING CANCER” (PearlRiver Bio GmbH, priority 2020, dated 2021)

What was measured:
HER2 INS YVMA = target: T1, HER2 INS YVMA (Homo sapiens, UniProt P04626, INS775YVMA); assay: Her2 Exon 20 InsYVMA Lance kinase activity assay; assay type: biochemical; conditions: 1 h incubation, 1,6 µM ATP
T1 construct: purchased DPF
Protocol: This protocol describes how the Lance Kinase Activity Assay was performed to determine IC50 values of compounds of general formula (I) against HER2 INS YVMA. The principle behind this enzymatic assay is based upon the phosphorylation of the Ulight-peptide substrate. It is detected by using a specific EU-labeled anti-phospho peptide antibody. The binding of the Eu labeled anti-phospho peptide antibody to the phosphorylated ULight labeled peptide gives rise to a FRET-signal.
Binding of an inhibitor to the kinase prevents phosphorylation of the Ulight-substrate, resulting in a loss of FRET. In table 2 is summarized the relevant information for the LANCE assay. Table 2: Reagents, stock concentrations and final assay concentrations for Her2 INS YVMA.
The compounds of general formula (I) summarized in Table 3 were serial diluted from a 10 mM DMSO stock solution 1:3 over 8 steps in a total volume of 20 µl.
For every sample, 8 µl of kinase-substrate mix was transferred into a suitable assay plate (e.g. Corning #3673). Compound was added via pintool transfer (10nl/well) using a Biomek FX robot (BeckmanCoulter). Reaction was started by addition of 2µl ATP working solution and mixed using variomag teleshaker (Thermo Fischer Scientific). After 1 h incubation at room temperature the reaction was stopped with 10µl detection mix containing the Eu-labeled phosphospecific antibody and 10mM EDTA. After a second incubation period of 1 h at room temperature the FRET signal was measured at 340 nm excitation, 665 nm and 615 nm emission (for the ULight-substrate and Eu-AB, respectively) with an Envision spectrophotometer (Perkin Elmer, Waltham, MA, USA) with 50 µs delay and 300 µs integration time. IC50 values were determined from the sigmoidal dose response curves with the software Quattro Workflow (Quattro GmbH, Munich, Germany).

[1] = system: EGFR Exon 20 InsNPH Ba/F3; assay: EGFR Exon 20 InsNPH Ba/F3 CellTiter-Glo assay; assay type: cell-based; conditions: Mus musculus, BaF3; 72 h incubation; read-out: EGFR Exon 20 InsNPH Ba/F3 CTG IC50
Protocol: (§1) The CellTiter-Glo Luminescent Cell Viability Assay (Promega) is a homogeneous method of determining the number of viable cells in culture. It is based on quantification of ATP, indicating the presence of metabolically active cells. Cells are seeded on day 1 at cell numbers that assure assay linearity and optimal signal intensity. After incubation for 24h in humidified chambers at 37°C and 5% CO2, compounds in DMSO are added at different concentrations. Cells are further incubated for 72 h at 37°C and 5% CO2. Cells treated with the compound vehicle DMSO are used as positive controls and cells treated with 10 µM Staurosporine serve as negative controls. At day 5 the CellTiter Glo Reagent is prepared according to the instructions of the kit (Promega Inc.): Reagent is mixed 1:1 with cell culture medium. Thereon, mixture and assay plates are equilibrated at room temperature for 20 min. Equal volumes of the reagent-medium-mixture is added to the volume of culture medium present in each well. The plates are mixed at ∼200 rpm for 2 minutes on an orbital shaker. The microplates are then incubated at room temperature for 10 minutes for stabilization of the luminescent signal. Following incubation the luminescence is recorded on a Victor microplate reader (Perkin Elmer) using a 200 ms integration time. The data is then analyzed with Excel using the XLFIT Plugin (dose response Fit 205) for IC50-determination. As quality control the Z'-factor is calculated from 16 positive and negative control values. Only assay results showing a Z'-factor ≥ 0.5 are used for further analysis.

[2] = system: Her2 Exon 20 InsYVMA Ba/F3; assay: Her2 Exon 20 InsYVMA Ba/F3 CellTiter-Glo assay; assay type: cell-based; conditions: Mus musculus, BaF3; 72 h incubation; read-out: Her2 Exon 20 InsYVMA Ba/F3 CTG IC50
Protocol: as §1

Cuto-17 = Cuto-17 CellTiter-Glo assay; assay type: cell-based; conditions: CUTO17; 72 h incubation; read-out: Cuto-17 CTG IC50
Protocol: as §1

EGFR T790M L858R = EGFR T790M L858R (Homo sapiens, UniProt P00533, L858R/T790M); assay: EGFR T790ML858R Lance assay; assay type: biochemical
EGFR wt = EGFR wt (Homo sapiens, UniProt P00533); assay: EGFR wt Lance assay; assay type: biochemical
H1975 = H1975 CellTiter-Glo assay; assay type: cell-based; conditions: Homo sapiens, NCI-H1975; 72 h incubation; read-out: H1975 CTG IC50
Protocol: as §1

A431 = A431 CellTiter-Glo assay; assay type: cell-based; conditions: Homo sapiens, A-431; 72 h incubation; read-out: A431 CTG IC50
Protocol: as §1

EGFR vIII Ba/F3 = EGFR vIII Ba/F3 CellTiter-Glo assay; assay type: cell-based; conditions: Mus musculus, BaF3; 72 h incubation; read-out: EGFR vIII Ba/F3 CTG IC50
Protocol: as §1

EGFR L858R = EGFR L858R (Homo sapiens, UniProt P00533, L858R); assay: EGFR L858R Lance assay; assay type: biochemical
EGFR (del746-750) = EGFR (del746-750) (Homo sapiens, UniProt P00533, DEL746-750); assay: EGFR (del746-750) Lance assay; assay type: biochemical
EGFR L858R T790M Ba/F3 = assay: EGFR L858RT790M Ba/F3 CellTiter-Glo assay; assay type: cell-based; conditions: Mus musculus, BaF3; 72 h incubation; read-out: EGFR L858R T790M Ba/F3 CTG IC50
Protocol: as §1, with “The microplates are then incubated at room temperature for 10 minutes for stabilization of the luminescent signal.” left out, “Only assay results showing a Z'-factor ≥ 0.5 are used for further analysis.” left out

EGFR L858R Ba/F3 = EGFR L858R Ba/F3 CellTiter-Glo assay; assay type: cell-based; conditions: Mus musculus, BaF3; 72 h incubation; read-out: EGFR L858R Ba/F3 CTG IC50
Protocol: as §1, with “The microplates are then incubated at room temperature for 10 minutes for stabilization of the luminescent signal.” left out, “Only assay results showing a Z'-factor ≥ 0.5 are used for further analysis.” left out

Chain of EGFR T790M L858R (P00533 25-1210 T790M/L858R): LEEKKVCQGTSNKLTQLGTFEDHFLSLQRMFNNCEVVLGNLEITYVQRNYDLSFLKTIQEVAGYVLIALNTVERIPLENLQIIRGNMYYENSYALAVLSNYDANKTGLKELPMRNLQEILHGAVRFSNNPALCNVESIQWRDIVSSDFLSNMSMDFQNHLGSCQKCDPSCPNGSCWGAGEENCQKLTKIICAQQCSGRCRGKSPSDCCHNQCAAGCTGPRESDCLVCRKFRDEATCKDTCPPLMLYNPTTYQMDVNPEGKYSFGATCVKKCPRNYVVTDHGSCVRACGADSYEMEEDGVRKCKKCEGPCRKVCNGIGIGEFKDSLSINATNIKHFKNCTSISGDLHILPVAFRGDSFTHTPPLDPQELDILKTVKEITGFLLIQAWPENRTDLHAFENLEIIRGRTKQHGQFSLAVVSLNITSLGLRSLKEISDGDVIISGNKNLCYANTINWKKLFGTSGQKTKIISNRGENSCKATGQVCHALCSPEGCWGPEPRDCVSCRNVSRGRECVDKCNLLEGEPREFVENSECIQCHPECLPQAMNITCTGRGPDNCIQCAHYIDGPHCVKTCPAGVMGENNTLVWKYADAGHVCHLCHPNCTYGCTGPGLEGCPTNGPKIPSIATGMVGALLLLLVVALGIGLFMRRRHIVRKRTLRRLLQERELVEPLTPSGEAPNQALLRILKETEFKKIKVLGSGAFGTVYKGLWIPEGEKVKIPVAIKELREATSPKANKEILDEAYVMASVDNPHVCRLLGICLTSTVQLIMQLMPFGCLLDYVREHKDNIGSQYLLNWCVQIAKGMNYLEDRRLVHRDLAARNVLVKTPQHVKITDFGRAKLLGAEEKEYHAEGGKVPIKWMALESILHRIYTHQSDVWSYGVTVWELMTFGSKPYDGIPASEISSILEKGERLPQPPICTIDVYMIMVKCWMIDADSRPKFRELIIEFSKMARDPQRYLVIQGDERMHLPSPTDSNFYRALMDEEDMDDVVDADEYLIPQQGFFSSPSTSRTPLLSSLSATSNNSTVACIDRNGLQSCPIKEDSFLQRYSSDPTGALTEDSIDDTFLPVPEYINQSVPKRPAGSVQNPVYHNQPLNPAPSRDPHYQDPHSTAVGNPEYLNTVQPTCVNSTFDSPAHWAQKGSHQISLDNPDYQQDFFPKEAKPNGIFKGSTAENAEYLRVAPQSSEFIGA
T1 sequence (P04626 with tags, fused parts or gaps INS775YVMA): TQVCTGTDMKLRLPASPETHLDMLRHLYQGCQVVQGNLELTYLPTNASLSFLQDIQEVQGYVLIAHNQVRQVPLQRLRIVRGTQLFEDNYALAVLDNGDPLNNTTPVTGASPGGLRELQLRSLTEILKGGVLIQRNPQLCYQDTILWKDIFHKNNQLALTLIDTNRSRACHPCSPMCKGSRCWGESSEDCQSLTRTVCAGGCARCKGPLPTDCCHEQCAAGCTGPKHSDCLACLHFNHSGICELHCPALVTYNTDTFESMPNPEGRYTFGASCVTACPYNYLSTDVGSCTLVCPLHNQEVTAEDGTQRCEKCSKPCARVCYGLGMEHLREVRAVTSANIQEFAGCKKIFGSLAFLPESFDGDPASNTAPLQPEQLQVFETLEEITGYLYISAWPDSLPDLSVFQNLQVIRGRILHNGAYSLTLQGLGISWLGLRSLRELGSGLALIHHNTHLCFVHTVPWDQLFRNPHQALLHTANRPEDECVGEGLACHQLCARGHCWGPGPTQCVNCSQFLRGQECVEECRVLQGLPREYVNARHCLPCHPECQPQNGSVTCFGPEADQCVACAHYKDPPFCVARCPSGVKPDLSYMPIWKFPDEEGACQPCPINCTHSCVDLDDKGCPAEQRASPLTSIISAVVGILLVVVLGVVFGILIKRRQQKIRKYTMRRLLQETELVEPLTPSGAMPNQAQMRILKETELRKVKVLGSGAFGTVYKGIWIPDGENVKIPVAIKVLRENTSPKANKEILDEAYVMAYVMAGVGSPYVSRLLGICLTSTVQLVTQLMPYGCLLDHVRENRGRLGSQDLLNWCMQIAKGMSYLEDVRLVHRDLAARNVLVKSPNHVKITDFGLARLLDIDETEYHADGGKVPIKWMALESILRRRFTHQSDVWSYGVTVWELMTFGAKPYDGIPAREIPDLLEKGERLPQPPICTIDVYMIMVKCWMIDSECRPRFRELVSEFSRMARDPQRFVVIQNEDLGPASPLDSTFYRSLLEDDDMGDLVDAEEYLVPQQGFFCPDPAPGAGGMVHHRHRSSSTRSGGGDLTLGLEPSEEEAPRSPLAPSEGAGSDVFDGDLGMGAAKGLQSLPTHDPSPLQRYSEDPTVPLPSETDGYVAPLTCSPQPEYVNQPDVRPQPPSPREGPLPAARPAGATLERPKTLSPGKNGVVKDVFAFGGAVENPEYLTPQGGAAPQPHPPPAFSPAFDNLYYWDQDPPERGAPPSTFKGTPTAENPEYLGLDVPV
Chain of EGFR wt (P00533 25-1210): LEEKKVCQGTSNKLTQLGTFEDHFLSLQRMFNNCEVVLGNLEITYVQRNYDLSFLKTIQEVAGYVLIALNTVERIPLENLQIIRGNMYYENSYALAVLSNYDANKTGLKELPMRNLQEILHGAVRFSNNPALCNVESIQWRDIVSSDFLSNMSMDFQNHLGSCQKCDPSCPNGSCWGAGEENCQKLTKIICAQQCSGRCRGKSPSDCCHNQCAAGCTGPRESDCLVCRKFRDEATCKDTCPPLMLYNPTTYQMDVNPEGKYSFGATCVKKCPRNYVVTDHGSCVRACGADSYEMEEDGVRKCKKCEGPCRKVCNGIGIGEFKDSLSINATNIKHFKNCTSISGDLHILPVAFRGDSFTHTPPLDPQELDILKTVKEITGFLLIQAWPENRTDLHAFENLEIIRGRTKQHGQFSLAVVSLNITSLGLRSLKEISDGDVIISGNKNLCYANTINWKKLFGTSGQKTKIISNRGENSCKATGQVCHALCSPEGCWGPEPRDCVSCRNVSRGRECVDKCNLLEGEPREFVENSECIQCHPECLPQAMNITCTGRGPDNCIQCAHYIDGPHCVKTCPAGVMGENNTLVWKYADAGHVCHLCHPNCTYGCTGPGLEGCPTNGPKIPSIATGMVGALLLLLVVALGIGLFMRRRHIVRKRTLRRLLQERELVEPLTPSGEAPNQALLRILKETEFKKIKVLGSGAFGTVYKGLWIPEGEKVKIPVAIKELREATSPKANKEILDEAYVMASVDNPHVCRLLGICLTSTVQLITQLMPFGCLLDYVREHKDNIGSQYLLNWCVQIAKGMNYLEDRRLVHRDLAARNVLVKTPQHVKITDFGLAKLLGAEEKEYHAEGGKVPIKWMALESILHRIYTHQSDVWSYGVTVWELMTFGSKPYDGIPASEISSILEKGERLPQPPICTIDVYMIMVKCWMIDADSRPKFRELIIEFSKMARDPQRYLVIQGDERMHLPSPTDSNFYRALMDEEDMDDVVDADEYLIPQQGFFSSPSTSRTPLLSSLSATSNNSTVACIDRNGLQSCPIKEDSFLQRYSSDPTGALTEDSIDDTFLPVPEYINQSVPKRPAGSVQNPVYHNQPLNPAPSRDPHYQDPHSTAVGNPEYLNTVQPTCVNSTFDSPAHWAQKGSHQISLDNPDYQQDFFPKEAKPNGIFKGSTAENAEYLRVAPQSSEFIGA
Chain of EGFR L858R (P00533 25-1210 L858R): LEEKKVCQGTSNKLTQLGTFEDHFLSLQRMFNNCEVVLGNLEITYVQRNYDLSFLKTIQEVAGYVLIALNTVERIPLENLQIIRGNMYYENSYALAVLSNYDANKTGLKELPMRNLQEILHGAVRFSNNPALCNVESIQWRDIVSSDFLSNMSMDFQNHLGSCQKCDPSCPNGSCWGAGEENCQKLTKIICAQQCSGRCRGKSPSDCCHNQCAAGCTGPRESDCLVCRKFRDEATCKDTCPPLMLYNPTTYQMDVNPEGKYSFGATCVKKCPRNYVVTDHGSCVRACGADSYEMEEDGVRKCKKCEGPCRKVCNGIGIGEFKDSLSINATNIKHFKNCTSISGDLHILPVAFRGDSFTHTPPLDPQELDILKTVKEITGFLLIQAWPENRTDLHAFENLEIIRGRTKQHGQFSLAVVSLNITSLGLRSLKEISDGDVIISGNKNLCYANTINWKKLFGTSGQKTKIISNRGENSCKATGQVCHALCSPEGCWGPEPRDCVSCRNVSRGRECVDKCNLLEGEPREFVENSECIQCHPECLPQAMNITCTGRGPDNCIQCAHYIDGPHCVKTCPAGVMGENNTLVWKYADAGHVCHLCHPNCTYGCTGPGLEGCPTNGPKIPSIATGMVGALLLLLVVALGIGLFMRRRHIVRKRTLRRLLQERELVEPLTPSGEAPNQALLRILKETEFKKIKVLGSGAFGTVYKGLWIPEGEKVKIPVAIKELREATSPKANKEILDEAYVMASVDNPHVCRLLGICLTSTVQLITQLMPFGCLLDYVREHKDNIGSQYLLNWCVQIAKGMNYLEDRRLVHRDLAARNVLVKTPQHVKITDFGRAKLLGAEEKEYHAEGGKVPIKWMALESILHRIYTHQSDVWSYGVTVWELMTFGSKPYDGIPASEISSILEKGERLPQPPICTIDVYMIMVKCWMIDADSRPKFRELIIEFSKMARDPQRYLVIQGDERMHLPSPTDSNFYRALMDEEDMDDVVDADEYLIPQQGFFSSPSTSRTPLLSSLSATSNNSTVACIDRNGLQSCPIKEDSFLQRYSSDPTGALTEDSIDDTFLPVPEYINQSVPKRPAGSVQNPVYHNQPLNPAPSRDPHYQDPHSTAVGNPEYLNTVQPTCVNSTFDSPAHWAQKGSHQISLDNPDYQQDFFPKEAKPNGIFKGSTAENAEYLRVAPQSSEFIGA

Row | Compound | IC50 (HER2 INS YVMA) | IC50 [1] | IC50 [2] | IC50 (Cuto-17) | IC50 (EGFR T790M L858R) | IC50 (EGFR wt) | IC50 (H1975) | IC50 (A431) | IC50 (EGFR vIII Ba/F3) | IC50 (EGFR L858R) | IC50 (EGFR (del746-750)) | IC50 (EGFR L858R T790M Ba/F3) | IC50 (EGFR L858R Ba/F3)
1 | C=CC(=O)Nc1cc(-c2c(-c3ccc(N4CCN(C)CC4)cc3)[nH]c3ncc(-c4cnn(C)c4)cc23)ccc1C [Example 1, N-(2-methyl-5-(5-(1-methyl-1H-pyrazol-4-yl)-2-(4-(4-methylpiperazin-1-yl)phenyl)-1H-pyrrolo[2,3-b]pyridin-3-yl)phenyl)acrylamide] | ≤ 50 nM | ≤ 50 nM | 100 to 500 nM | 100 to 500 nM | ≤ 50 nM | ≤ 50 nM | 100 to 500 nM | 1000 to 10000 nM | ≤ 50 nM | – | – | – | –
2 | C=CC(=O)Nc1cc(-c2c(-c3ccc(N4CCN(C)CC4)cc3)[nH]c3ncc(-c4ccnn4C)cc23)ccc1C [Example 2, N-(2-methyl-5-(5-(1-methyl-1H-pyrazol-5-yl)-2-(4-(4-methylpiperazin-1-yl)phenyl)-1H-pyrrolo[2,3-b]pyridin-3-yl)phenyl)acrylamide] | ≤ 50 nM | 50 to 100 nM | 100 to 500 nM | 100 to 500 nM | ≤ 50 nM | ≤ 50 nM | 100 to 500 nM | 1000 to 10000 nM | ≤ 50 nM | – | – | – | –
3 | C=CC(=O)Nc1cc(-c2c(-c3ccc(N4CCN(C)CC4)cc3)[nH]c3ncc(-c4cnn(C)c4C)cc23)ccc1C [Example 3, N-(5-(5-(1,5-dimethyl-1H-pyrazol-4-yl)-2-(4-(4-methylpiperazin-1-yl)phenyl)-1H-pyrrolo[2,3-b]pyridin-3-yl)-2-methylphenyl)acrylamide] | ≤ 50 nM | ≤ 50 nM | ≤ 50 nM | ≤ 50 nM | ≤ 50 nM | ≤ 50 nM | 50 to 100 nM | 500 to 1000 nM | ≤ 50 nM | – | – | – | –
4 | C=CC(=O)Nc1cc(-c2c(-c3ccc(N4CCN(C)CC4)cc3)[nH]c3ncc(-c4cnn(CC)c4)cc23)ccc1C [Example 4, N-(5-(5-(1-ethyl-1H-pyrazol-4-yl)-2-(4-(4-methylpiperazin-1-yl)phenyl)-1 H-pyrrolo[2,3-b]pyridin-3-yl)-2-methylphenyl)acrylamide] | ≤ 50 nM | ≤ 50 nM | 50 to 100 nM | 100 to 500 nM | ≤ 50 nM | ≤ 50 nM | 100 to 500 nM | 500 to 1000 nM | ≤ 50 nM | – | – | – | –
5 | C=CC(=O)Nc1cc(-c2c(-c3ccc(N4CCN(C)CC4)cc3)[nH]c3ncc(-c4cn(C)nc4C)cc23)ccc1C [Example 5, N-(5-(5-(1,3-dimethyl-1H-pyrazol-4-yl)-2-(4-(4-methylpiperazin-1-yl)phenyl)-1H-pyrrolo[2,3-b]pyridin-3-yl)-2-methylphenyl)acrylamide] | ≤ 50 nM | ≤ 50 nM | 100 to 500 nM | 100 to 500 nM | ≤ 50 nM | ≤ 50 nM | 500 to 1000 nM | 1000 to 10000 nM | 50 to 100 nM | ≤ 50 nM | ≤ 50 nM | – | –
6 | C=CC(=O)Nc1cc(-c2c(-c3ccc(N4CCN(C)CC4)cc3)[nH]c3ncc(-c4cnn(C5CC5)c4)cc23)ccc1C [Example 6, N-(5-(5-(1-cyclopropyl-1H-pyrazol-4-yl)-2-(4-(4-methylpiperazin-1-yl)phenyl)-1H-pyrrolo[2,3-b]pyridin-3-yl)-2-methylphenyl)acrylamide] | ≤ 50 nM | ≤ 50 nM | ≤ 50 nM | 100 to 500 nM | ≤ 50 nM | ≤ 50 nM | 100 to 500 nM | 1000 to 10000 nM | ≤ 50 nM | ≤ 50 nM | ≤ 50 nM | ≤ 50 nM | ≤ 50 nM
7 | C=CC(=O)Nc1cc(-c2c(-c3ccc(N4CCN(C)CC4)cc3)[nH]c3ncc(-c4cnn(CCOC)c4)cc23)ccc1C [Example 7, N-(5-(5-(1-(2-methoxyethyl)-1H-pyrazol-4-yl)-2-(4-(4-methylpiperazin-1-yl)phenyl)-1H-pyrrolo[2,3-b]pyridin-3-yl)-2-methylphenyl)acrylamide] | ≤ 50 nM | ≤ 50 nM | 100 to 500 nM | 100 to 500 nM | ≤ 50 nM | ≤ 50 nM | 100 to 500 nM | 1000 to 10000 nM | ≤ 50 nM | – | – | – | –
